Results published in US20240050436A1, “COMPOSITIONS AND METHODS USED FOR RETINAL ISCHEMIA OR DIABETES” (The United States GOVERNMENT As Represented By The …, priority 2021, published 2024).
Entries after “also recorded” stand apart in the source; their conditions may differ.

Key:
[1] = molecular target: T1, p75^NTR (Mus musculus, UniProt Q9Z0W1); test: Interventional treatment of STZ-diabetic mice (16-weeks diabetes): kidney and systemic readouts; assay type: in vivo; settings: 50 mg/Kg, po, QOD, 12 weeks
T1 construct: Interventional treatment with the p75^NTR modulator LM11A-31 (50 mg/Kg, po, QOD) for 12 weeks; from tissue; host or cells: living STZ-diabetic mice (kidney, urine, blood, body weight)
T1 sequence (Q9Z0W1 32-427): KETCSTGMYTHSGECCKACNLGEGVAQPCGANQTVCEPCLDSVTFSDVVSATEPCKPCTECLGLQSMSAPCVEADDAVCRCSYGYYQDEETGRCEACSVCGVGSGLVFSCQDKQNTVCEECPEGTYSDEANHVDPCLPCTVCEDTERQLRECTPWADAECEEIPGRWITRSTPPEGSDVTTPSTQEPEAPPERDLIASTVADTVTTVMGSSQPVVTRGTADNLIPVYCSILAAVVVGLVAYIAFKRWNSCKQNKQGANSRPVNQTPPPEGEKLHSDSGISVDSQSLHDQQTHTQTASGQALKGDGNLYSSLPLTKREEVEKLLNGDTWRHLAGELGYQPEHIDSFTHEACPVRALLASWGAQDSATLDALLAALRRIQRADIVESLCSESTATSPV

[2] = cited from earlier work
[3] = cited from earlier work; remark: listed apart in the source
[4] = molecular target: T1, p75^NTR; test: Visual acuity test (cue version of Morris water maze) post retinal I/R; assay type: in vivo; settings: WT mice
Experimental: For surgeries, mice were anesthetized with intraperitoneal ketamine (50 mg/kg; Hospira, Inc., Lake Forest, IL, USA) and xylazine (10 mg/kg; Akorn, Decatur, IL, USA). Retinal ischemia/reperfusion (I/R) was performed as described previously in Coucha, M. et al. Modulating Expression of Thioredoxin Interacting Protein (TXNIP) Prevents Secondary Damage and Preserves Visual Function in a Mouse Model of Ischemia/Reperfusion. Int. J. Mol. Sci. 2019, 20. Briefly, pupils were dilated with 1% Atropine Sulfate (Akorn, Inc., Lake Forest, IL, USA). The anterior chamber was cannulated with a 32 gauge needle attached to a line from a saline reservoir at a height calibrated to yield 120 mmHg. The intraocular pressure (IOP) was elevated to 120 mmHg for 45-60 min. I/R injury and choroidal nonperfusion was evident by whitening of the anterior segment of the globe and blanching of the episcleral veins. During infusion, topical anesthesia (0.5% tetracaine HCL, Bausch & Lomb, NJ, USA) was applied to the cornea. After ischemia, the needle was immediately withdrawn, allowing for rapid reperfusion, IOP was normalized, and reflow of the retinal vasculature was confirmed by observation of the episcleral veins. […]
Visual acuity was assessed behaviorally by training and testing mice on the “cue” version of the Morris water maze task. […]

[5] = test system: p75NTR; settings: cultures of p75NTR−/− neurons; cited from earlier work

CCC(C)C(N)C(=O)NCCN1CCOCC1 (centres unmarked) [LM11A-31, 2-amino-3-methyl-pentanoic acid [2-morpholin-4-yl-ethyl]-amide]
UAER normalized to creatinine ([1]; control animals): did not alter baseline
blood glucose level ([1]; control or diabetic animals): did not alter
renal fibrotic markers (Fibronectin, alpha-SMA) ([1]; controls): did not alter base-line
Urinary albumin excretion rate (UAER) normalized to creatinine ([1]; diabetic animals): significantly improved; also recorded: increase
body weight ([1]; diabetic animals): preserved the weight
glomeruli areas (PAS staining) ([1]; diabetic animals): significantly preserved glomeruli areas back to normal glomeruli size
glomeruli size (Trichome staining) ([1]; diabetic animals): preserved glomeruli size
kidney NGF levels, Western Blot ([1]; diabetic animals): restored
kidney TNF-α expression (inflammatory marker), Western Blot ([1]; diabetic animals): significantly prevented the increase; also recorded: significantly improved
kidney p-JNK (apoptotic marker), Western Blot ([1]; diabetic animals): significantly prevented the increase; also recorded: significantly improved
ratio of kidney weight to body weight ([1]; diabetic animals): significantly improved
renal TGF-beta expression ([1]; diabetic animals): significantly prevented the increase; also recorded: significantly improved
renal and urinary inflammation (kidney IL-6 and IL-1β mRNA, urine IL-1β by ELISA) ([1]; diabetic animals): significantly prevented the increase
renal fibrosis (Trichome staining) ([1]; diabetic animals): significantly improved fibrosis
renal fibrotic markers (Fibronectin, alpha-SMA), Western Blot ([1]; diabetic animals): significantly prevented the increase; also recorded: significantly improved
p75^NTR expression in kidney sections (immunohistochemistry) ([1]; diabetic or control animals): did not alter
ratio of kidney weight to body weight ([1]; treated controls): did not alter the baseline
blood-brain barrier crossing ([2]; 50 mg/kg, oral administration): cross the blood-brain barrier
oral bioavailability ([2]; in vivo, po): orally bioavailable
water solubility [3]: water-soluble
time to reach the platform (visual-clue water maze) ([4]; I/R both eyes, 50 mg/kg/day oral gavage every other day from 48 h post I/R, 6, 9, 12, 15 days post I/R, 50 mg/kg/day): significantly ameliorated; also recorded: attenuated
area under the curve (AUC) of time to platform after 15 days ([4]; I/R, 50 mg/kg/day oral gavage every other day): normalized
specificity to p75NTR: protective activity [5]: complete loss of its protective activity
